Assay results reported in patent publication US20220073536A1 (Rigel Pharmaceuticals, Inc., priority 2003, published 2022).

How the values were obtained:
[1] = system: cultured human mast cells (CHMC); test: CHMC low cell density IgE activation: tryptase assay; format: cell-based; conditions: low cell density CHMC, IgE activation, tryptase release
Summary of the method: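 CHMC at 1000–1500 cells/well were preincubated 1 hr at 37° C., stimulated with anti-IgE for 30 minutes at 37° C., then pelleted. Supernatant tryptase was measured with a fluorogenic substrate after 30 min at room temperature, against un-stimulated control wells.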

[2] = system: cultured human mast cells (CHMC); test: CHMC low cell density ionomycin activation: tryptase assay; format: cell-based; conditions: low cell density CHMC, tryptase release, 3 point, read-out: LD Tryptase, CHMC, Iono, 3 pt
[3] = 3 point, read-out: LD Tryptase, CHMC, IgE, 3 pt
[4] = 8 point, read-out: LD Tryptase, CHMC, IgE, 8 pt
[5] = Homo sapiens, Mast cell, 3 point, read-out: LD Tryptase, CHMC, IgE, 3 pt
[6] = Homo sapiens, Mast cell, 8 point, read-out: LD Tryptase, CHMC, IgE, 8 pt

COc1ccc(Nc2ncc(F)c(Nc3ccc(OCCO)c(Cl)c3)n2)cc1Cl [Compound 621, N4-[3-Chloro-4-(2-hydroxyethyleneoxy)phenyl]-N2-(3-chloro-4-methoxyphenyl)-5-fluoro-2,4-pyrimidinediamine]
IC50 [1, 3]: < 10 µM
IC50 [1, 4]: < 10 µM
IC50 [2]: > 10 µM

Cc1cc(Nc2ncc(F)c(Nc3ccc(OCCO)c(Cl)c3)n2)cc(C)c1Cl [Compound 622, N2-(4-Chloro-3,5-dimethylphenyl)-N4-[3-chloro-4-(2-hydroxyethyleneoxy)phenyl]-5-fluoro-2,4-pyrimidinediamine]
IC50 [1, 3]: < 10 µM
IC50 [1, 4]: < 10 µM
IC50 [2]: > 10 µM

OCCOc1ccc(Nc2nc(Nc3ccc4[nH]ccc4c3)ncc2F)cc1Cl [Compound 623, N4-[3-Chloro-4-(2-hydroxyethyleneoxy)phenyl]-5-fluoro-N2-(indol-5-yl)-2,4-pyrimidinediamine]
IC50 [1, 3]: < 10 µM
IC50 [1, 4]: < 10 µM
IC50 [2]: < 10 µM

COc1cc(Nc2ncc(F)c(Nc3ccc(OCCO)c(Cl)c3)n2)ccc1Cl [Compound 624, N4-[3-Chloro-4-(2-hydroxyethyleneoxy)phenyl]-N2-(4-chloro-3-methoxyphenyl)-5-fluoro-2,4-pyrimidinediamine]
IC50 [1, 3]: < 10 µM
IC50 [1, 4]: < 10 µM
IC50 [2]: > 10 µM

CNC(=O)COc1ccc(Nc2nc(Nc3ccc4[nH]ccc4c3)ncc2F)cc1Cl [Compound 625, N4-[3-Chloro-4-(N-methylamino)carbonylmethyleneoxyphenyl]-5-fluoro-N2-(indol-5-yl)-2,4-pyrimidinediamine]
IC50 [1, 3]: < 10 µM
IC50 [1, 4]: < 10 µM
IC50 [2]: < 10 µM

Cc1cc(N(C)c2nc(Cl)ncc2F)cc(C)c1Cl [Compound 626]
IC50 [1, 5]: > 10 µM
IC50 ([2]; Homo sapiens, Mast cell): < 10 µM

CN(c1ccc2c(c1)OC(F)(F)C(F)(F)O2)c1nc(Cl)ncc1F [Compound 627]
IC50 [1, 3]: > 10 µM
IC50 [2]: > 10 µM

CN(c1ccc2c(c1)OC(F)(F)O2)c1nc(Cl)ncc1F [Compound 628]
IC50 [1, 3]: > 10 µM
IC50 [2]: > 10 µM

Fc1cnc(Nc2ccc3cc[nH]c3c2)nc1Nc1ccc(Cl)c(C(F)(F)F)c1 [Compound 629, N4-(4-Chloro-3-trifluoromethylphenyl)-5-fluoro-N2-(indol-6-yl)-2,4-pyrimidinediamine]
IC50 [1, 5]: < 10 µM
IC50 [1, 6]: < 10 µM
IC50 ([2]; Homo sapiens, Mast cell): > 10 µM

COc1cc(Nc2nc(Nc3ccc4cc[nH]c4c3)ncc2F)ccc1Cl [Compound 630, N4-(4-Chloro-3-methoxyphenyl)-5-fluoro-N2-(indol-6-yl)-2,4-pyrimidinediamine]
IC50 [1, 5]: < 10 µM
IC50 [1, 6]: < 10 µM
IC50 ([2]; Homo sapiens, Mast cell): > 10 µM

COC(=O)COc1ccc(Nc2nc(Nc3ccc4cc[nH]c4c3)ncc2F)cc1Cl [Compound 631, N4-(3-Chloro-4-methoxycarbonylmethyleneoxyphenyl)-5-fluoro-N2-(indol-6-yl)-2,4-pyrimidinediamine]
IC50 [1, 3]: < 10 µM
IC50 [1, 4]: < 10 µM
IC50 [2]: < 10 µM

OCCOc1ccc(Nc2nc(Nc3ccc4cc[nH]c4c3)ncc2F)cc1Cl [Compound 632, N4-[3-Chloro-4-(2-hydroxyethyleneoxy)phenyl]-5-fluoro-N2-(indol-6-yl)-2,4-pyrimidinediamine]
IC50 [1, 3]: < 10 µM
IC50 [1, 4]: < 10 µM
IC50 [2]: > 10 µM

Fc1cnc(Nc2cccc(-c3ncco3)c2)nc1Nc1ccc2c(c1)OC(F)(F)C(F)(F)O2 [Compound 633]
IC50 [1, 3]: < 10 µM
IC50 [2]: > 10 µM

CN(c1ccc2c(c1)OC(F)(F)C(F)(F)O2)c1nc(Nc2cccc(-c3ncco3)c2)ncc1F [Compound 634]
IC50 [1, 3]: > 10 µM
IC50 [1, 4]: < 10 µM
IC50 [2]: > 10 µM

CNC(=O)COc1c(C)cc(Nc2ncc(F)c(N(C)c3ccc4c(c3)OCCO4)n2)cc1C [Compound 635, N2-[3,5-Dimethyl-4-(N-methylamino)carbonylmethyleneoxyphenyl]-N4-(3,4-ethylenedioxyphenyl)-5-fluoro-N4-methyl-2,4-pyrimidinediamine]
IC50 [1, 3]: < 10 µM
IC50 [1, 4]: < 10 µM
IC50 [2]: < 10 µM

CNC(=O)COc1c(C)cc(Nc2ncc(F)c(N(C)c3ccc4c(c3)OC(F)(F)C(F)(F)O4)n2)cc1C [Compound 636, N2-[3,5-Dimethyl-4-(N-methylamino)carbonylmethyleneoxyphenyl]-5-fluoro-N4-methyl-N4-[3,4-(tetrafluoroethylenedioxy)phenyl]-2,4-pyrimidinediamine]
IC50 [1, 3]: < 10 µM
IC50 [1, 4]: < 10 µM
IC50 [2]: < 10 µM

CNC(=O)COc1c(C)cc(Nc2ncc(F)c(Nc3ccc4c(c3)OC(F)(F)C(F)(F)O4)n2)cc1C [Compound 637, N2-[3,5-Dimethyl-4-(N-methylamino)carbonylmethyleneoxyphenyl]-5-fluoro-N4-[3,4-(tetrafluoroethylenedioxy)phenyl]-2,4-pyrimidinediamine]
IC50 [1, 3]: < 10 µM
IC50 [2]: > 10 µM

CNC(=O)COc1c(C)cc(Nc2ncc(F)c(N(C)c3cc(OC)cc(OC)c3)n2)cc1C [Compound 638, N2-[3,5-Dimethyl-4-(N-methylamino)carbonylmethyleneoxyphenyl]-N4-(3,5-dimethoxyphenyl)-5-fluoro-N4-methyl-2,4-pyrimidinediamine]
IC50 [1, 3]: < 10 µM
IC50 [1, 4]: < 10 µM
IC50 [2]: < 10 µM

COC(=O)Cn1ccc2ccc(Nc3ncc(F)c(Nc4ccc5c(c4)NC(=O)C(C)(C)O5)n3)cc21 [Compound 639, N4-(2,2-Dimethyl-3-oxo-4H-benz[1,4]oxazin-6-yl)-5-fluoro-N2-[1-(methoxycarbonylmethylene)indol-6-yl]-2,4-pyrimidinediamine]
IC50 [1, 3]: < 10 µM
IC50 [1, 4]: < 10 µM
IC50 [2]: > 10 µM

CNC(=O)COc1ccc(Nc2nc(Nc3ccc4ccn(CC(=O)OC)c4c3)ncc2F)cc1Cl [Compound 640, N4-[3-Chloro-4-(N-methylamino)carbonylmethyleneoxyphenyl]-5-fluoro-N2-[1-(methoxycarbonylmethylene)indol-6-yl]-2,4-pyrimidinediamine]
IC50 [1, 3]: < 10 µM
IC50 [1, 4]: < 10 µM
IC50 [2]: > 10 µM

COC(=O)Cn1ccc2ccc(Nc3ncc(F)c(Nc4ccc(Cl)c(OC)c4)n3)cc21 [Compound 641, N4-(4-Chloro-3-methoxyphenyl)-5-fluoro-N2-[1-(methoxycarbonylmethylene)indol-6-yl]-2,4-pyrimidinediamine]
IC50 [1, 3]: < 10 µM
IC50 [1, 4]: < 10 µM
IC50 [2]: < 10 µM

COC(=O)Cn1ccc2ccc(Nc3ncc(F)c(Nc4ccc5c(c4)OCCO5)n3)cc21 [Compound 642, N4-(3,4-Ethylenedioxyphenyl)-5-fluoro-N2-[1-(methoxycarbonylmethylene)indol-6-yl]-2,4-pyrimidinediamine]
IC50 [1, 3]: < 10 µM
IC50 [1, 4]: < 10 µM
IC50 [2]: > 10 µM

COC(=O)Cn1ccc2cc(Nc3ncc(F)c(Nc4ccc5c(c4)NC(=O)C(C)(C)O5)n3)ccc21 [Compound 643, N4-(2,2-Dimethyl-3-oxo-4H-benz[1,4]oxazin-6-yl)-5-fluoro-N2-[1-(methoxycarbonylmethylene)indol-5-yl]-2,4-pyrimidinediamine]
IC50 [1, 3]: < 10 µM
IC50 [1, 4]: < 10 µM
IC50 [2]: > 10 µM

CNC(=O)COc1ccc(Nc2nc(Nc3ccc4c(ccn4CC(=O)OC)c3)ncc2F)cc1Cl [Compound 644, N4-[3-Chloro-4-(N-methylamino)carbonylmethyleneoxyphenyl]-5-fluoro-N2-[1-(methoxycarbonylmethylene)indol-5-yl]-2,4-pyrimidinediamine]
IC50 [1, 3]: < 10 µM
IC50 [1, 4]: < 10 µM
IC50 [2]: > 10 µM
